For this experiment, the target named is recombinant human UAE (Homo sapiens (Human), UniProt P22314). Briefly: Ubiquitin Activating Enzyme (UAE) HTRF Assay. Conditions: read-out: % inhibition @0.111 μM. Background: In TR-FRET formats the signal depends on donor and acceptor labels being close together.
Chain of recombinant human UAE (P22314 whole entry): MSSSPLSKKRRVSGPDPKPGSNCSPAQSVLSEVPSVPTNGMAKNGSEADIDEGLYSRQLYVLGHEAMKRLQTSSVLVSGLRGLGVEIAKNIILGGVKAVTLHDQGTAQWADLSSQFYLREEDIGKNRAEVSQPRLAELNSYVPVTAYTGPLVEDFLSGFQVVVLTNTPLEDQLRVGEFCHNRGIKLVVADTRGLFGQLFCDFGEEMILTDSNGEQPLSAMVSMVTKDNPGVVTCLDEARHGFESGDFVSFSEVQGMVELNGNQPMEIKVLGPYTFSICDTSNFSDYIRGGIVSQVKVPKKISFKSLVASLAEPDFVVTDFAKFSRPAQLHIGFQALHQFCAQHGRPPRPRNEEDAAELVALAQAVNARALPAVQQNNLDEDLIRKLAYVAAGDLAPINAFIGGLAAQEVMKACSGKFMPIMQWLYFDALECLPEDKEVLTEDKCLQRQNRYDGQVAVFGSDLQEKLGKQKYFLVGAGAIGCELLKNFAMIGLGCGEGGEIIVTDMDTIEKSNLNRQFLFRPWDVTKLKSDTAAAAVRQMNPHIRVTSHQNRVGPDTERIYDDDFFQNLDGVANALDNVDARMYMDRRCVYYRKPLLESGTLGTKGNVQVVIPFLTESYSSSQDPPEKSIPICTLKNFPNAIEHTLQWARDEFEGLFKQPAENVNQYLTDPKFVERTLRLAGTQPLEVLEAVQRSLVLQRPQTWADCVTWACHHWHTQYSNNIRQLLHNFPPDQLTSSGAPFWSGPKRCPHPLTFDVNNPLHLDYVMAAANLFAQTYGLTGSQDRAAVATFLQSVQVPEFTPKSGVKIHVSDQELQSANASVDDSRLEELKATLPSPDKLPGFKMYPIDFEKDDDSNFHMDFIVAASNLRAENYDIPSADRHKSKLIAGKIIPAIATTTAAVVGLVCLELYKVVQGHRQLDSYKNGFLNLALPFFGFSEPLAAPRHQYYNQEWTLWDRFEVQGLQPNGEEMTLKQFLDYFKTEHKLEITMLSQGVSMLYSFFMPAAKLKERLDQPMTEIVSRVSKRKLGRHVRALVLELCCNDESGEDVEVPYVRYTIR

Protocol: After incubation for 120 minutes, quantification of the FRET is performed on the Pherostar (BMG).
For compounds whose values are marked with an asterisk (*), mouse UAE was used. For all other compounds, human UAE was used.

As usually defined, the inhibition is how much of the control response was suppressed. Regarding `NS(=O)(=O)OC[C@H]1C[C@@H](Nc2ccnc3cc(-c4cccc(OC(F)(F)F)c4)nn23)[C@H](O)[C@@H]1O` (relative stereo) [Compound I-040, (rac)-((1R,2R,3S,4R)-2,3-Dihydroxy-4-((2-(3-(trifluoromethoxy)phenyl)pyrazolo[1,5-a]pyrimidin-7-yl)amino)cyclopentyl)methyl rel-sulfamate], the inhibition at 0.111 µM is 100%. `CC1(C)CCc2ccc(-c3cc4nccc(N[C@@H]5C[C@H](COS(N)(=O)=O)[C@@H](O)[C@H]5O)n4n3)cc21` (relative stereo) [Compound I-041, (rac)-((1R,2R,3S,4R)-4-(2-(3,3-dimethyl-2,3-dihydro-1H-inden-5-yl)pyrazolo[1,5-a]pyrimidin-7-ylamino)-2,3-dihydroxycyclopentyl)methyl rel-sulfamate]: the inhibition at 0.111 µM stood at 99%. For `NS(=O)(=O)OC[C@H]1C[C@@H](Nc2ccnc3cc(-c4ccc5ccccc5n4)nn23)[C@H](O)[C@@H]1O` (relative stereo) [Compound I-042, (rac)-((1R,2R,3S,4R)-2,3-dihydroxy-4-(2-(quinolin-2-yl)pyrazolo[1,5-a]pyrimidin-7-ylamino)cyclopentyl)methyl rel-sulfamate], the inhibition at 0.111 µM was found to be 100%. The figure for `NS(=O)(=O)OC[C@H]1C[C@@H](Nc2ccnc3cc(-c4ccc5cccnc5c4)nn23)[C@H](O)[C@@H]1O` (relative stereo) [Compound I-043, (rac)-((1R,2R,3S,4R)-2,3-dihydroxy-4-(2-(quinolin-7-yl)pyrazolo[1,5-a]pyrimidin-7-ylamino)cyclopentyl)methyl rel-sulfamate] is 100%; for `NS(=O)(=O)OC[C@H]1C[C@@H](Nc2ccnc3cc(-c4cccc(SC(F)(F)F)c4)nn23)[C@H](O)[C@@H]1O` (relative stereo) [Compound I-044, (rac)-((1R,2R,3S,4R)-2,3-dihydroxy-4-(2-(3-(trifluoromethylthio)phenyl)pyrazolo[1,5-a]pyrimidin-7-ylamino)cyclopentyl)methyl rel-sulfamate] it is 100%; for `NS(=O)(=O)OC[C@H]1C[C@@H](Nc2ccnc3cc(-c4cccc5ccsc45)nn23)[C@H](O)[C@@H]1O` (relative stereo) [Compound I-045, (rac)-((1R,2R,3S,4R)-4-((2-(Benzo[b]thiophen-7-yl)pyrazolo[1,5-a]pyrimidin-7-yl)amino)-2,3-dihydroxycyclopentyl)methyl rel-sulfamate] it is 100%. As for `NS(=O)(=O)OC[C@H]1C[C@@H](Nc2ccnc3cc(-c4cccc(N5CCCC5)c4)nn23)[C@H](O)[C@@H]1O` (relative stereo) [Compound I-046, (rac)-((1R,2R,3S,4R)-2,3-dihydroxy-4-(2-(3-(pyrrolidin-1-yl)phenyl)pyrazolo[1,5-a]pyrimidin-7-ylamino)cyclopentyl)methyl rel-sulfamate], the inhibition at 0.111 µM was 100%. With `NS(=O)(=O)OC[C@H]1C[C@@H](Nc2ccnc3cc(-c4cccc(C5=CCCC5)c4)nn23)[C@H](O)[C@@H]1O` (relative stereo) [Compound I-047, (rac)-(1R,2R,3S,4R)-4-(2-(3-cyclopentenylphenyl)pyrazolo[1,5-a]pyrimidin-7-ylamino)-2,3-dihydroxycyclopentyl)methyl rel-sulfamate], the inhibition at 0.111 µM was determined as 100%. As for `NS(=O)(=O)OC[C@H]1C[C@@H](Nc2ccnc3cc(-c4cccc(C5CCCC5)c4)nn23)[C@H](O)[C@@H]1O` (relative stereo) [Compound I-048, (rac)-[(1R,2R,3S,4R)-4-{[2-(3-cyclopentylphenyl)pyrazolo[1,5-a]pyrimidin-7-yl]amino}-2,3-dihydroxycyclopentyl]methyl rel-sulfamate], the figure is 100%; as for `NS(=O)(=O)OC[C@H]1C[C@@H](Nc2ccnc3cc(-c4coc5ccccc45)nn23)[C@H](O)[C@@H]1O` (relative stereo) [Compound I-049, (rac)-((1R,2R,3S,4R)-4-(2-(benzofuran-3-yl)pyrazolo[1,5-a]pyrimidin-7-ylamino)-2,3-dihydroxycyclopentyl)methyl rel-sulfamate], 100%.

With `NS(=O)(=O)OC[C@H]1C[C@@H](Nc2ccnc3cc(-c4cccc(OC(F)F)c4)nn23)[C@H](O)[C@@H]1O` (relative stereo) [Compound I-050, (rac)-((1R,2R,3S,4R)-4-((2-(3-(Difluoromethoxy)phenyl)pyrazolo[1,5-a]pyrimidin-7-yl)amino)-2,3-dihydroxycyclopentyl)methyl rel-sulfamate], the inhibition at 0.111 µM is 100%. Regarding `NS(=O)(=O)OC[C@H]1C[C@@H](Nc2ccnc3cc(-c4cccc(Oc5ccccc5)c4)nn23)[C@H](O)[C@@H]1O` (relative stereo) [Compound I-051, (rac)-((1R,2R,3S,4R)-2,3-Dihydroxy-4-((2-(3-phenoxyphenyl)pyrazolo[1,5-a]pyrimidin-7-yl)amino)cyclopentyl)methyl rel-sulfamate], the inhibition at 0.111 µM was 90%. For the molecule `CC(C)(C)c1cccc(-c2cc3nccc(N[C@@H]4C[C@H](COS(N)(=O)=O)[C@@H](O)[C@H]4O)n3n2)n1` (relative stereo) [Compound I-052, (rac)-((1R,2R,3S,4R)-4-(2-(6-tert-butylpyridin-2-yl)pyrazolo[1,5-a]pyrimidin-7-ylamino)-2,3-dihydroxycyclopentyl)methyl rel-sulfamate], the inhibition at 0.111 µM came out at 100%. As to `CC1(C)OCc2ccc(-c3cc4nccc(N[C@@H]5C[C@H](COS(N)(=O)=O)[C@@H](O)[C@H]5O)n4n3)cc21` (relative stereo) [Compound I-053, (rac)-((1R,2R,3S,4R)-4-(2-(3,3-dimethyl-1,3-dihydroisobenzofuran-5-yl)pyrazolo[1,5-a]pyrimidin-7-ylamino)-2,3-dihydroxycyclopentyl)methyl rel-sulfamate], the inhibition at 0.111 µM was 100%. As for `NS(=O)(=O)OC[C@H]1C[C@@H](Nc2ccnc3cc(-c4c[nH]c5ccc(Cl)cc45)nn23)[C@H](O)[C@@H]1O` (relative stereo) [Compound I-054, (rac)-[(1R,2R,3S,4R)-4-{[2-(5-chloro-1H-indol-3-yl)pyrazolo[1,5-a]pyrimidin-7-yl]amino}-2,3-dihydroxycyclopentyl]methyl rel-sulfamate], the figure is 100%; as for `NS(=O)(=O)OC[C@H]1C[C@@H](Nc2ccnc3cc(-c4c[nH]c5cc(Cl)ccc45)nn23)[C@H](O)[C@@H]1O` (relative stereo) [Compound I-055, (rac)-[(1R,2R,3S,4R)-4-{[2-(6-chloro-1H-indol-3-yl)pyrazolo[1,5-a]pyrimidin-7-yl]amino}-2,3-dihydroxycyclopentyl]methyl rel-sulfamate], 100%. With `NS(=O)(=O)OC[C@H]1C[C@@H](Nc2ccnc3cc(-c4cccc5c4sc4ccccc45)nn23)[C@H](O)[C@@H]1O` (relative stereo) [Compound I-056, (rac)-((1R,2R,3S,4R)-4-((2-(Dibenzo[b,d]thiophen-4-yl)pyrazolo[1,5-a]pyrimidin-7-yl)amino)-2,3-dihydroxycyclopentyl)methyl rel-sulfamate], the inhibition at 0.111 µM came out at 100%. On to `NS(=O)(=O)OC[C@H]1C[C@@H](Nc2ccnc3cc(-c4cc(Cl)ccc4OC(F)(F)F)nn23)[C@H](O)[C@@H]1O` (relative stereo) [Compound I-057, (rac)-((1R,2R,3S,4R)-4-(2-(5-chloro-2-(trifluoromethoxy)phenyl)pyrazolo[1,5-a]pyrimidin-7-ylamino)-2,3-dihydroxycyclopentyl)methyl rel-sulfamate], for which the inhibition at 0.111 µM was 100%. As to `CC(C)(c1cccc(-c2cc3nccc(N[C@@H]4C[C@H](COS(N)(=O)=O)[C@@H](O)[C@H]4O)n3n2)c1)C(F)(F)F` (relative stereo) [Compound I-058, (rac)-((1R,2R,3S,4R)-2,3-dihydroxy-4-(2-(3-(1,1,1-trifluoro-2-methylpropan-2-yl)phenyl)pyrazolo[1,5-a]pyrimidin-7-ylamino)cyclopentyl)methyl rel-sulfamate], the inhibition at 0.111 µM was 100%. In the case of `NS(=O)(=O)OC[C@H]1C[C@@H](Nc2ccnc3cc(-c4ccnc(C(F)(F)F)c4)nn23)[C@H](O)[C@@H]1O` (relative stereo) [Compound I-059, (rac)-((1R,2R,3S,4R)-2,3-dihydroxy-4-(2-(2-(trifluoromethyl)pyridin-4-yl)pyrazolo[1,5-a]pyrimidin-7-ylamino)cyclopentyl)methyl rel-sulfamate], the inhibition at 0.111 µM amounted to 94%. For `NS(=O)(=O)OC[C@H]1C[C@@H](Nc2ccnc3cc(-c4ccc(C(F)(F)F)s4)nn23)[C@H](O)[C@@H]1O` (relative stereo) [Compound I-060, (rac)-((1R,2R,3S,4R)-2,3-Dihydroxy-4-((2-(5-(trifluoromethyl)thiophen-2-yl)pyrazolo[1,5-a]pyrimidin-7-yl)amino)cyclopentyl)methyl rel-sulfamate], the inhibition at 0.111 µM came out at 89%.

Regarding `NS(=O)(=O)OC[C@H]1C[C@@H](Nc2ccnc3cc(-c4cccc5sccc45)nn23)[C@H](O)[C@@H]1O` (relative stereo) [Compound I-061, (rac)-((1R,2R,3S,4R)-4-((2-(Benzo[b]thiophen-4-yl)pyrazolo[1,5-a]pyrimidin-7-yl)amino)-2,3-dihydroxycyclopentyl)methyl rel-sulfamate], the inhibition at 0.111 µM is 100%. Turning to `NS(=O)(=O)OC[C@H]1C[C@@H](Nc2ccnc3cc(-c4ccc5c(c4)[nH]c4ccccc45)nn23)[C@H](O)[C@@H]1O` (relative stereo) [Compound I-062, (rac)-[(1R,2R,3S,4R)-4-{[2-(9H-carbazol-2-yl)pyrazolo[1,5-a]pyrimidin-7-yl]amino}-2,3-dihydroxycyclopentyl]methyl rel-sulfamate], the inhibition at 0.111 µM is 100%. With `COc1ccc(C(C)(C)C)cc1-c1cc2nccc(N[C@@H]3C[C@H](COS(N)(=O)=O)[C@@H](O)[C@H]3O)n2n1` (relative stereo) [Compound I-063, (rac)-((1R,2R,3S,4R)-4-{[2-(5-tert-butyl-2-methoxyphenyl)pyrazolo[1,5-a]pyrimidin-7-yl]amino}-2,3-dihydroxycyclopentyl)methyl rel-sulfamate], the inhibition at 0.111 µM came to 100%.

For the origin of these results see patent US10202389B2, “Pyrazolopyrimidinyl inhibitors of ubiquitin-activating enzyme” (Millennium Pharmaceuticals, Inc., priority 2012, dated 2019).
